Results taken from PubChem BioAssay AID1259408 (Genetic Toxicology Data Bank (GENE-TOX), 2018).
The source made the active and inactive calls. How the calls were made is not given here.

Tested on: GENE-TOX genotoxicity assays, various organisms and cells
Assay: GENE-TOX mutagenicity studies
Conditions: for call: Assay Type: In vivo carcinogenicity studies
[1] = Species/Cell Type: Drosophila melanogaster, Assay Type: Sex-linked recessive lethal gene mutation, Assay Code: SRL+, Evaluation Type: Evaluation A (Pre-1980)
[2] = Species/Cell Type: Human, Assay Type: Sister-chromatid exchange (SCE) in vitro, Assay Code: SC1T, Evaluation Type: Evaluation B (Post-1980)
[3] = Species/Cell Type: Nonhuman, Assay Code: CCGT, Evaluation Type: Evaluation A (Pre-1980)
[4] = Species/Cell Type: Saccharomyces cerevisiae, Assay Type: Mitotic recombination or gene conversion, Assay Code: YEH-, Evaluation Type: Evaluation A (Pre-1980)
[5] = Species/Cell Type: Syrian hamster embryo (SA7/SHE) cells, Assay Type: Cell transformation, viral enhanced, Assay Code: CT7+, Evaluation Type: Evaluation A (Pre-1980)
[6] = Species/Cell Type: Salmonella typhimurium (one or more of the five standard strains: TA98, TA100, TA1535, TA1537, and TA1538), Assay Type: Histidine reverse gene mutation, Ames assay, Assay Code: SALT, Evaluation Type: Evaluation A (Pre-1980)
[7] = Species/Cell Type: Human, Assay Type: Sister-chromatid exchange (SCE) in vitro, Assay Code: SC1+, Evaluation Type: Evaluation B (Post-1980)
[8] = Species/Cell Type: Salmonella typhimurium (one or more of the five standard strains: TA98, TA100, TA1535, TA1537, and TA1538), Assay Type: Histidine reverse gene mutation, Ames assay, Assay Code: SAL+*, Activation: With metabolic activation, Evaluation Type: Evaluation A (Pre-1980)
[9] = Species/Cell Type: Salmonella typhimurium (one or more of the five standard strains: TA98, TA100, TA1535, TA1537, and TA1538), Assay Type: Histidine reverse gene mutation, Ames assay, Assay Code: SAL-, Evaluation Type: Evaluation A (Pre-1980)

O=c1[nH]c(=O)n([C@H]2C[C@H](O)[C@@H](CO)O2)cc1Br
mutagenic call (Species/Cell Type: Arabidopsis species, Assay Type: Gene mutation, Assay Code: ARMT, Evaluation Type: Evaluation A (Pre-1980)): no conclusion | mutagenic call (Species/Cell Type: Chinese hamster lung (V79) cells, Assay Type: Forward gene mutation at the HPRT or ouabain locus, Assay Code: V79+, Evaluation Type: Evaluation A (Pre-1980)): active; positive | mutagenic call (Species/Cell Type: Chinese hamster ovary (CHO) cells, Assay Type: Forward gene mutation at the HPRT locus, Assay Code: CHO+, Evaluation Type: Evaluation B (Post-1980)): active; positive | mutagenic call [1]: active; positive | mutagenic call (Species/Cell Type: Drosophila melanogaster, Sex: Male, Assay Type: Heritable translocation test, chromosome aberrations, Assay Code: DHTT, Evaluation Type: Evaluation A (Pre-1980)): no conclusion | mutagenic call (Species/Cell Type: Escherichia coli polA (W3119 vs P3478), Assay Type: Rec-assay, DNA effects (bacterial DNA repair), Assay Code: RE1T, Evaluation Type: Evaluation A (Pre-1980)): no conclusion | mutagenic call (Species/Cell Type: Human diploid fibroblasts, Assay Type: Unscheduled DNA synthesis (UDS) in vitro, DNA effects, Assay Code: UDH-, Evaluation Type: Evaluation A (Pre-1980)): inactive; negative | mutagenic call (Species/Cell Type: Human embryo lung fibroblasts (WI-38 cells), Assay Type: Sister-chromatid exchange (SCE) in vitro, Assay Code: SCW+D, Dose Response: With dose response, Evaluation Type: Evaluation A (Pre-1980)): active; positive | mutagenic call (Species/Cell Type: Human embryo lung fibroblasts (WI-38 cells), Assay Type: Sister-chromatid exchange (SCE) in vitro, Assay Code: SCW+D, Dose Response: With dose response, Evaluation Type: Evaluation B (Post-1980)): active; positive | mutagenic call (Species/Cell Type: Human lymphocytes, Assay Type: Micronucleus test in vitro, chromosome aberrations, Assay Code: MN7+, Evaluation Type: Evaluation A (Pre-1980)): active; positive | mutagenic call (Species/Cell Type: Human lymphocytes, Assay Type: Sister-chromatid exchange (SCE) in vitro, Assay Code: SCL+D, Dose Response: With dose response, Evaluation Type: Evaluation A (Pre-1980)): active; positive | mutagenic call (Species/Cell Type: Human lymphocytes, Assay Type: Sister-chromatid exchange (SCE) in vitro, Assay Code: SCLT, Evaluation Type: Evaluation B (Post-1980)): no conclusion | mutagenic call (Species/Cell Type: Human, Assay Type: Sister-chromatid exchange (SCE) in vitro, Assay Code: SC1+D, Dose Response: With dose response, Evaluation Type: Evaluation A (Pre-1980)): active; positive | mutagenic call [2]: no conclusion | mutagenic call (Species/Cell Type: Mammalian polychromatic erythrocytes, Assay Type: Micronucleus test, chromosome aberrations, Assay Code: MNT+, Evaluation Type: Evaluation A (Pre-1980)): active; positive | mutagenic call (Species/Cell Type: Mouse (C3H/10T1/2) cells, Assay Type: Cell transformation, Assay Code: CTH-, Evaluation Type: Evaluation A (Pre-1980)): inactive; negative | mutagenic call (Species/Cell Type: Mouse, Sex: Male, Assay Type: Sperm morphology, Assay Code: SPI+, Evaluation Type: Evaluation A (Pre-1980)): active; positive | call [3]: no conclusion | mutagenic call (Species/Cell Type: Nonhuman, Assay Type: Sister-chromatid exchange (SCE) in vitro, Assay Code: SC2+D, Dose Response: With dose response, Evaluation Type: Evaluation A (Pre-1980)): active; positive | mutagenic call (Species/Cell Type: Nonhuman, Assay Type: Sister-chromatid exchange (SCE) in vitro, Assay Code: SC2+D, Dose Response: With dose response, Evaluation Type: Evaluation B (Post-1980)): active; positive | mutagenic call (Species/Cell Type: Nonhuman, Assay Type: Sister-chromatid exchange (SCE) in vivo, Assay Code: SC3+D, Dose Response: With dose response, Evaluation Type: Evaluation A (Pre-1980)): active; positive | mutagenic call (Species/Cell Type: Nonhuman, Assay Type: Sister-chromatid exchange (SCE) in vivo, Assay Code: SC3+D, Dose Response: With dose response, Evaluation Type: Evaluation B (Post-1980)): active; positive | mutagenic call [4]: inactive; negative | mutagenic call [5]: active; positive | mutagenic call (Species/Cell Type: Syrian hamster embryo (SHE) cells, Assay Type: Cell transformation, clonal assay, Assay Code: CTCT, Evaluation Type: Evaluation A (Pre-1980)): no conclusion

CN(N=O)C(C)(C)C
mutagenic call (Species/Cell Type: Chinese hamster lung (V79) cells, Assay Type: Forward gene mutation at the HPRT or ouabain locus, Assay Code: V79-, Evaluation Type: Evaluation A (Pre-1980)): inactive; negative

CC(=O)Nc1ccc([C@@H]2O[C@@H]2c2ccccc2)cc1
mutagenic call [6]: no conclusion

CC1CC(C)CN(N=O)C1 (stereo not given)
mutagenic call [1]: active; positive | mutagenic call (Species/Cell Type: Saccharomyces cerevisiae, Assay Type: Forward gene mutation, Assay Code: YEF+*, Activation: With metabolic activation, Evaluation Type: Evaluation A (Pre-1980)): active; positive | mutagenic call (Species/Cell Type: Saccharomyces cerevisiae, Assay Type: Reverse gene mutation, Assay Code: YER+*, Activation: With metabolic activation, Evaluation Type: Evaluation A (Pre-1980)): active; positive | mutagenic call [6]: no conclusion

Oc1cccc2cccnc12
mutagenic call (Species/Cell Type: Human lymphocytes, Assay Type: Sister-chromatid exchange (SCE) in vitro, Assay Code: SCL+, Evaluation Type: Evaluation B (Post-1980)): active; positive | mutagenic call [7]: active; positive | mutagenic call (Species/Cell Type: Mammalian polychromatic erythrocytes, Assay Type: Micronucleus test, chromosome aberrations, Assay Code: MNTT, Evaluation Type: Evaluation B (Post-1980)): no conclusion | mutagenic call (Species/Cell Type: Neurospora crassa, Assay Type: Aneuploidy, chromosome aberrations, Assay Code: NEN-, Evaluation Type: Evaluation A (Pre-1980)): inactive; negative | call (Species/Cell Type: Nonhuman, Assay Code: CCG-, Evaluation Type: Evaluation A (Pre-1980)): inactive; negative | mutagenic call (Species/Cell Type: Saccharomyces cerevisiae, Assay Type: Mitotic recombination or gene conversion, Assay Code: YEC-, Evaluation Type: Evaluation A (Pre-1980)): inactive; negative | mutagenic call [8]: active; positive | mutagenic call (Species/Cell Type: Vicia faba, Assay Type: Chromosome aberrations, Assay Code: VIC+, Evaluation Type: Evaluation A (Pre-1980)): active; positive

c1ccc2[nH]c(-c3cscn3)nc2c1
mutagenic call (Species/Cell Type: Aspergillus nidulans, Assay Type: Aneuploidy, chromosome aberrations, Assay Code: ASN+, Evaluation Type: Evaluation A (Pre-1980)): active; positive | mutagenic call (Species/Cell Type: Aspergillus nidulans, Assay Type: Mitotic recombination, Assay Code: ASGT, Evaluation Type: Evaluation A (Pre-1980)): no conclusion | mutagenic call (Species/Cell Type: Mammalian polychromatic erythrocytes, Assay Type: Micronucleus test, chromosome aberrations, Assay Code: MNT+, Evaluation Type: Evaluation B (Post-1980)): active; positive

CCN(CC)c1ccc2c(-c3ccc(S(=O)(=O)O)cc3S(=O)(=O)[O-])c3ccc(=[N+](CC)CC)cc-3oc2c1
mutagenic call (Species/Cell Type: Bacillus subtilis (H17 vs M45), Assay Type: Rec-assay, spot test, DNA effects (bacterial DNA repair), Assay Code: REWT, Evaluation Type: Evaluation A (Pre-1980)): no conclusion | mutagenic call (Species/Cell Type: Bacillus subtilis (H17 vs M45T), Assay Type: Rec-assay, spot test, DNA effects (bacterial DNA repair), Assay Code: REXT, Evaluation Type: Evaluation A (Pre-1980)): no conclusion

Cl[Se][Se]Cl
mutagenic call (Species/Cell Type: Syrian hamster embryo (SA7/SHE) cells, Assay Type: Cell transformation, viral enhanced, Assay Code: CT7T, Evaluation Type: Evaluation A (Pre-1980)): no conclusion

O=c1ccc2ccccc2o1
mutagenic call (Species/Cell Type: Allium cepa, Assay Type: Chromosome aberrations, Assay Code: ALC+D, Dose Response: With dose response, Evaluation Type: Evaluation A (Pre-1980)): active; positive

C[C@H]1CCC[C@@]2(C)CCCC[C@]12O
mutagenic call [9]: inactive; negative

O=C1C=C(N2CC2)c2ccccc2C1=O
mutagenic call [1]: active; positive

O=c1oc2cc3occc3cc2c2ccncc12
mutagenic call [2]: no conclusion

CN1CCC(=C2c3ccccc3C3OC3c3ccccc32)CC1 (stereo not given)
mutagenic call [6]: no conclusion

C/C=C/C1=CN2C(=O)c3cc(O[C@@H]4O[C@@H](C)[C@H](NC)[C@@](C)(O)[C@H]4O)c(C)c(O)c3N[C@H](O)[C@@H]2C1
mutagenic call (Species/Cell Type: Mammalian polychromatic erythrocytes, Assay Type: Micronucleus test, chromosome aberrations, Assay Code: MNT+U, Dose Response: Unconfirmed positive response, Evaluation Type: Evaluation B (Post-1980)): active; positive

CC(C)c1ccccc1
mutagenic call [4]: inactive; negative | mutagenic call [9]: inactive; negative

Nc1ccc(-c2nc(NCC(O)CO)c3ccccc3n2)s1 (stereo not given)
mutagenic call [6]: no conclusion

Oc1ccc2ccc3cc4ccccc4c4ccc1c2c34
mutagenic call (Species/Cell Type: Chinese hamster lung (V79) cells, Assay Type: Forward gene mutation at the HPRT or ouabain locus, Assay Code: V79+/-*, Activation: With metabolic activation, Evaluation Type: Evaluation A (Pre-1980)): inactive; positive without activation, negative with activation | call [3]: no conclusion | mutagenic call (Species/Cell Type: Salmonella typhimurium (one or more of the five standard strains: TA98, TA100, TA1535, TA1537, and TA1538), Assay Type: Histidine reverse gene mutation, Ames assay, Assay Code: SAL+, Evaluation Type: Evaluation A (Pre-1980)): active; positive

NC(=S)Nc1cccc2ccccc12
call [3]: no conclusion | mutagenic call (Species/Cell Type: Syrian hamster embryo (SHE) cells, Assay Type: Cell transformation, clonal assay, Assay Code: CTC+, Evaluation Type: Evaluation A (Pre-1980)): active; positive

O=c1[nH]c(Cl)c(Cl)cc1Cl
mutagenic call (Species/Cell Type: Nonhuman, Assay Type: Sister-chromatid exchange (SCE) in vitro, Assay Code: SC2T, Evaluation Type: Evaluation B (Post-1980)): no conclusion | mutagenic call (Species/Cell Type: Nonhuman, Assay Type: Sister-chromatid exchange (SCE) in vivo, Assay Code: SC3-, Evaluation Type: Evaluation B (Post-1980)): inactive; negative

ONc1ccccc1
mutagenic call [7]: active; positive

CCCCC[C@H](O)/C=C/[C@@H]1[C@@H](C/C=C\CCCC(=O)O)[C@@H](O)C[C@H]1O
mutagenic call (Species/Cell Type: Rabbit, Sex: Male, Assay Type: Sperm morphology, Assay Code: SPR+, Evaluation Type: Evaluation A (Pre-1980)): active; positive

c1ccc(Nc2ccccc2)cc1
mutagenic call [5]: active; positive

Cc1cccc2cccnc12
mutagenic call [8]: active; positive
